Results as given in patent US20130052172A1, “METHODS FOR DIAGNOSING AND TREATING CARDIAC DEFECTS” (priority 2011, published 2013).
“Also recorded” adds a separate entry of the source. Positions of bridges follow the written chain, without caps; N, C: chain ends. Non-standard residues stand in square brackets, D forms with d. Residues, ends and D or L forms follow the SMILES beside them. *: point of attachment. Ileψ(thiazoline)Cys = CC[C@H](C)[C@H](N)C1=N[C@H](C(=O)*)CS1; dOrn = NCCC[C@@H](N)C(=O)O

Columns and labels:
[1] = test system: isolated hearts; experiment: In vitro global ischemia/reperfusion of isolated perfused hearts, infarct size and recovery of LVDP; set-up: species or system rat; settings: for effect of inhibitor alone on cardioprotection: inhibitor perfused prior to ischemia/reperfusion, no vancomycin
Procedure: (§1) For in vitro ischemia/reperfusion studies, hearts were perfused retrogradely, as described previously in Baker, J. et al. (Am. J. Physiol. Heart Circ. Physiol., 2000), the entirety of which is incorporated herein by reference. Briefly, hearts were perfused with modified Krebs-Henseleit buffer (120 mM NaCl, 25 mM NaHCO3, 4.7 mM KCl, 1.2 mM KH2PO4, 1.20 mM MgSO4, 11 mM glucose, and 1.8 mM CaCl2) bubbled with 95% O2-5% CO2 for a 40-minute stabilization period and subjected to 25 minutes of global no-flow ischemia, followed by 180 minutes of reperfusion. Before use, all perfusion fluids were filtered through cellulose acetate membranes with a pore size of 5.0 μm to remove particulate matter. Hearts were kept in temperature-controlled chambers to maintain myocardial temperature at 37° C. A balloon connected to a pressure transducer was inserted into the left ventricle to monitor cardiac function. For some experiments, hearts were stabilized for 25 minutes and then perfused with vancomycin or a mixture of antibiotics for 15 minutes before ischemia/reperfusion. During the initial 40 minute reperfusion period, recovery of mechanical function was measured as left ventricular developed pressure (LVDP) under steady-state conditions and expressed as a percentage of preischemic LVDP. At the end of the 3 hour reperfusion period, hearts were processed and stained with 2,3,5-triphenyltetrazolium chloride dye for IS determination.

[2] = test system: rats; experiment: Myocardial ischemia/reperfusion by the protocol of example 3 (model not given); format: in vivo, rat; settings: Dahl S rats, single antibiotic in drinking water (60 or 120 mg/kg/day)
Description: In the following example, methods for assaying myocardial infarction in vitro and in vivo in rats as determined by ischemia/reperfusion studies are described.
(§2) An anesthetized rat model was used for in vivo ischemia/reperfusion studies using the general surgical protocol and determination of infarct size (IS) described in “K(ATP) opener-induced delayed cardioprotection: involvement of sarcolemmal and mitochondrial K(ATP) channels, free radicals and MEK½” (Gross, E. et al., J. Mol. Cell. Cardiol. 35, 985-992, 2003), the entirety of which is incorporated herein by reference. Briefly, following anesthesia, a tracheotomy for artificial ventilation was performed, with the left common carotid artery cannulated for blood pressure and heart rate measurements. A thoracotomy was performed at the fifth intercostal space, the pericardium was excised, and a silk ligature was placed distal to the left atrial appendage that spanned to the sternal portion of the left ventricle, which included the left anterior descending coronary artery. Occlusion of the area described [area at risk (AAR)] was created by placing ends of the ligature through a polypropylene tube and fixing the snare to the epicardial surface with a hemostat. After 30 min, the hemostat was released to reperfuse the AAR. Following 2 h of reperfusion, the ligature was again occluded, and the AAR was determined by patent-blue negative staining. The heart was then excised, cross-sectioned into 4 to 5 slices, and separated into normal zone and AAR. Pieces were incubated in 1% 2,3,5-triphenyltetrazolium chloride to determine IS. The heart was then incubated overnight in 10% formaldehyde, and infarcted tissue was dissected from the AAR. IS was expressed as a percentage of the AAR (IS/AAR). Leptin (0.12 μg/kg) was administered intravenously as a bolus at 24 and 12 h before ischemia. Amino acids were administered intravenously as a bolus at 24 and 12 hours before ischemia or dissolved in the drinking water and given 48 hours before ischemia.
as §1

[3] = test system: rat heart; settings: pharmacologic preconditioning (Baker 2007, 2008); cited from earlier work
[4] = test system: leptin; experiment: Plasma cytokine analysis (leptin); format: in vivo, rat; settings: Dahl S rats fed 15 ml/rat/d for 14 d, with or without leptin
Procedure: The concentration of cytokines in blood of rats treated with vancomycin was quantified to identify antibiotic-induced changes. […] Blood samples were kept on ice for 30 min and then centrifuged at 1000 g for 10 min at 4° C. to obtain plasma. Plasma samples were then analyzed to determine the concentration of 23 cytokines (Eve Technologies, Calgary, AB, Canada). Antibiotic was administered continuously via drinking water as described in example 1.

[5] = test system: Dahl S rats; experiment: In vivo regional myocardial ischemia/reperfusion, infarct size (IS/AAR); set-up: species or system rat; settings: vancomycin 15 mg/kg/day for 72 hours, thrombopoietin i.v. 15 minutes prior to ischemia
Description: as §2

N#C/C(=C/c1ccc(O)c(O)c1)C(=O)NCc1ccccc1 [AG-490]
effect on ability of vancomycin to reduce myocardial necrosis and enhance ventricular function ([1]; JAK-2 inhibitor 1 μM perfused prior to ischemia/reperfusion, hearts of vancomycin-treated rats): partially abolished the ability of vancomycin to reduce myocardial necrosis and to enhance ventricular function
effect of inhibitor alone on cardioprotection [1]: no effect on cardioprotection

COc1ccc(Cl)cc1C(=O)NCCc1ccc(S(=O)(=O)NC(=O)NC2CCCCC2)cc1 [Glibenclamide, glibenclamide]
effect on ability of vancomycin to reduce myocardial necrosis and enhance ventricular function ([1]; KATP channel blocker 3 μM perfused prior to ischemia/reperfusion): abolished the ability of vancomycin to reduce myocardial necrosis and to enhance ventricular function
effect of inhibitor alone on cardioprotection [1]: no effect on cardioprotection

COc1cccc(-c2cc(=O)c3ccccc3o2)c1N [PD98059]
effect of inhibitor alone on cardioprotection [1]: no effect on cardioprotection
effect on ability of vancomycin to reduce myocardial necrosis and enhance ventricular function ([1]; p42/44 MAPK inhibitor 10 μM perfused prior to ischemia/reperfusion): abrogated the ability of vancomycin to reduce myocardial necrosis and to enhance ventricular function

C[S+]([O-])c1ccc(-c2nc(-c3ccncc3)c(-c3ccc(F)cc3)[nH]2)cc1 (centres unmarked) [SB 203580]
effect of inhibitor alone on cardioprotection [1]: no effect on cardioprotection
effect on ability of vancomycin to reduce myocardial necrosis and enhance ventricular function ([1]; p38 MAPK inhibitor 15 μM perfused prior to ischemia/reperfusion): abolished the ability of vancomycin to reduce myocardial necrosis and to enhance ventricular function

CC[C@H](C)[C@H](N)C1=N[C@H](C(=O)N[C@@H](CC(C)C)C(=O)N[C@H](CCC(=O)O)C(=O)N[C@H](C(=O)N[C@H]2CCCCNC(=O)[C@H](CC(N)=O)NC(=O)[C@@H](CC(=O)O)NC(=O)[C@H](Cc3cnc[nH]3)NC(=O)[C@@H](Cc3ccccc3)NC(=O)[C@H]([C@@H](C)CC)NC(=O)[C@@H](CCCN)NC2=O)[C@@H](C)CC)CS1 [bacitracin] ({Ileψ(thiazoline)Cys}-L[dE]IK[dOrn]I[dF]H[dD]N; lactam 4-C)
effect on myocardial infarct size [2]: did not induce protection

[H]/N=C(/N)N[C@H]1[C@H](O)[C@@H](O)[C@H](O[C@@H]2O[C@@H](C)[C@](O)(C=O)[C@H]2O[C@@H]2O[C@@H](CO)[C@H](O)[C@@H](O)[C@@H]2NC)[C@@H](N/C(N)=N\[H])[C@@H]1O [streptomycin]
effect on myocardial infarct size [2]: reduce myocardial infarct size

erythropoietin: pharmacologic preconditioning agent, cited from Baker 2007 (darbepoetin alfa paper)
reduction in IS [3]: 39%

leptin: 16-kDa, 167-aa polypeptide synthesized and secreted into the circulation primarily by white adipocytes
effect on leptin levels in blood [4]: no effect on leptin levels
effect on IS / myocardial infarction ([1]; Dahl S rats fed 15 ml/rat/d for 14 d, with or without leptin 0.12 μg/kg): no effect on IS
effect of leptin in the absence of vancomycin pretreatment ([1]; leptin 0.12 μg/kg i.v. at 24 and 12 h before ischemia/reperfusion): had no effect
effect on probiotic juice-induced cardioprotection ([1]; leptin 0.12 μg/kg i.v. at 24 and 12 h before ischemia/reperfusion, probiotic juice-fed rats): abolished probiotic juice-induced cardioprotection; also recorded: reversed
effect on decrease in IS and increase in recovery of LVDP conferred by vancomycin ([1]; leptin 0.12 μg/kg i.v. at 24 and 12 h before ischemia/reperfusion, vancomycin-treated rats): abolished the decrease in IS and increase in recovery of LVDP conferred by vancomycin treatment; also recorded: reversed cardioprotection by vancomycin

neomycin
effect on myocardial infarct size [2]: reduce myocardial infarct size

polymyxin B
effect on myocardial infarct size [2]: did not induce protection

thrombopoietin: agent of classical pharmacologic preconditioning; human thrombopoietin (Baker 2008)
reduction in IS [3]: 34%
decrease in infarct size [5]: 25%
